Reference: the supplement of paper PMC10307832

Columns and labels:
Test in all cases: relative viability (nuclei count vs DMSO), 5 days (fraction); higher = more cells survive
Erlotinib + Pemetrexed = compound: C#Cc1cccc(Nc2ncnc3cc(OCCOC)c(OCCOC)cc23)c1 [Erlotinib] + Nc1nc2[nH]cc(CCc3ccc(C(=O)N[C@@H](CCC(=O)O)C(=O)O)cc3)c2c(=O)[nH]1 [Pemetrexed] (partner 0.2 µM)
How it was run: (§1)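 The day after seeding in 1536-well plates, lung cancer cell lines were treated by pin tool with a single drug, or with a fixed anchor-drug dose together with five library-drug doses (not always all listed) in √10 steps. After 5 days, a combined fix-and-stain solution (final 0.05% Triton X-100, 1% formaldehyde, 1 ug/ml Hoechst) was added. Nuclei counted on 4× images gave relative viability as treated counts over vehicle counts, reported as the median of duplicate plates.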

AT9283 + Tozasertib = compound: O=C(Nc1c[nH]nc1-c1nc2ccc(CN3CCOCC3)cc2[nH]1)NC1CC1 [AT9283] + Cc1cc(Nc2cc(N3CCN(C)CC3)nc(Sc3ccc(NC(=O)C4CC4)cc3)n2)n[nH]1 [Tozasertib] (partner 0.1 µM)
How it was run: as §1

AT9283 + Pemetrexed = compound: O=C(Nc1c[nH]nc1-c1nc2ccc(CN3CCOCC3)cc2[nH]1)NC1CC1 [AT9283] + Nc1nc2[nH]cc(CCc3ccc(C(=O)N[C@@H](CCC(=O)O)C(=O)O)cc3)c2c(=O)[nH]1 [Pemetrexed] (partner 0.2 µM)
How it was run: as §1

AT9283 + Vorinostat = compound: O=C(Nc1c[nH]nc1-c1nc2ccc(CN3CCOCC3)cc2[nH]1)NC1CC1 [AT9283] + O=C(CCCCCCC(=O)Nc1ccccc1)NO [Vorinostat] (partner 1 µM)
How it was run: as §1

Erlotinib + Foretinib = compound: C#Cc1cccc(Nc2ncnc3cc(OCCOC)c(OCCOC)cc23)c1 [Erlotinib] + COc1cc2c(Oc3ccc(NC(=O)C4(C(=O)Nc5ccc(F)cc5)CC4)cc3F)ccnc2cc1OCCCN1CCOCC1 [Foretinib] (partner 0.25 µM)
How it was run: as §1

Row | Cell Line | relative viability (Erlotinib + Pemetrexed; first compound 0.02 µM) | relative viability (Erlotinib + Pemetrexed; first compound 0.2 µM) | relative viability (Erlotinib + Pemetrexed; first compound 0.6325 µM) | relative viability (Erlotinib + Pemetrexed; first compound 2 µM) | relative viability (AT9283 + Tozasertib; first compound 0.003 µM) | relative viability (AT9283 + Tozasertib; first compound 0.03 µM) | relative viability (AT9283 + Tozasertib; first compound 0.09487 µM) | relative viability (AT9283 + Tozasertib; first compound 0.3 µM) | relative viability (AT9283 + Pemetrexed; first compound 0.003 µM) | relative viability (AT9283 + Pemetrexed; first compound 0.03 µM) | relative viability (AT9283 + Pemetrexed; first compound 0.09487 µM) | relative viability (AT9283 + Pemetrexed; first compound 0.3 µM) | relative viability (AT9283 + Vorinostat; first compound 0.003 µM) | relative viability (AT9283 + Vorinostat; first compound 0.03 µM) | relative viability (AT9283 + Vorinostat; first compound 0.09487 µM) | relative viability (AT9283 + Vorinostat; first compound 0.3 µM) | relative viability (Erlotinib + Foretinib; first compound 0.02 µM) | relative viability (Erlotinib + Foretinib; first compound 0.2 µM) | relative viability (Erlotinib + Foretinib; first compound 0.6325 µM) | relative viability (Erlotinib + Foretinib; first compound 2 µM)
1 | NCI-H1755 | 0.477 | 0.398 | 0.402 | 0.368 | 0.624 | 0.469 | 0.419 | 0.367 | 0.438 | 0.415 | 0.361 | 0.301 | 0.74 | 0.784 | 0.54 | 0.398 | 0.942 | 0.936 | 0.916 | 0.907
2 | LU99A | 0.166 | 0.196 | 0.16 | 0.151 | 0.268 | 0.247 | 0.226 | 0.222 | 0.162 | 0.184 | 0.139 | 0.112 | 0.457 | 0.253 | 0.228 | 0.15 | 0.861 | 0.833 | 0.829 | 0.678
3 | LCLC-97TM1 | 0.22 | 0.201 | 0.176 | 0.155 | 0.199 | 0.123 | 0.18 | 0.181 | 0.19 | 0.134 | 0.0995 | 0.0907 | 0.734 | 0.15 | 0.128 | 0.0905 | 0.894 | 0.89 | 0.963 | 0.791
4 | NCI-H522 | 0.94 | 1.08 | 1.12 | 0.811 | 0.545 | 0.576 | 0.56 | 0.557 | 0.949 | 0.78 | 0.746 | 0.499 | 0.782 | 0.549 | 0.527 | 0.376 | – | – | – | –
5 | NCI-H1666 | 0.81 | 0.693 | – | 0.753 | 0.671 | 0.479 | 0.428 | 0.43 | 0.775 | 0.818 | 0.718 | 0.612 | 1.18 | 0.769 | 0.527 | 0.606 | 1.06 | 0.86 | 0.802 | 0.767
6 | NCI-H2347 | 0.454 | 0.401 | 0.439 | 0.409 | 0.517 | 0.456 | 0.336 | 0.326 | 0.419 | 0.417 | 0.376 | 0.338 | 0.826 | 0.566 | 0.357 | 0.288 | 0.877 | 0.841 | 1.08 | 0.61
7 | NCI-H441 | 0.284 | 0.275 | 0.259 | 0.275 | 0.707 | 0.715 | 0.361 | 0.31 | 0.228 | 0.274 | 0.25 | 0.238 | 0.698 | 0.499 | 0.669 | 0.307 | 1.01 | 1.02 | 0.933 | 0.883
8 | HCC-78 | 0.883 | 0.912 | 0.892 | 0.899 | 0.501 | 0.354 | 0.267 | 0.291 | 0.905 | 0.896 | 0.924 | 0.919 | 0.384 | 0.385 | 0.258 | 0.229 | 0.477 | 0.42 | 0.362 | 0.322
